Experimental data from EP4001279A1, “NOVEL SPIROPYRROLIDINE DERIVED ANTIVIRAL AGENTS” (Enanta Pharmaceuticals, Inc., priority 2020, dated 2022).
Like-named read-outs stand apart in the source and are kept apart here.

Columns and labels:
[1] = target: SARS-CoV-2 3CL-protease (Severe acute respiratory syndrome coronavirus 2, UniProt P0DTD1); assay: SARS-CoV-2 3C-like (3CL) protease fluorescence assay (FRET); format: biochemical; details: read-out: FRET IC50
[2] = tested on: 229E human corona virus (hCoV); assay: 229E live virus assay (CPE, ATPlite readout in MRC-5 cells); format: cell-based, hCoV-229E; details: MOI 0.05, ATPlite readout, run in duplicate
[3] = Human coronavirus 229E, MRC5, hCoV-229E live virus
[4] = SARS-CoV-2 3CL-protease 10 nM, 30 min preincubation at RT, substrate 40 µM, test compounds 0 - 10 µM, duplicate

Row | Structure (SMILES) | IC50 [1] | EC50 [2, 3] | IC50 [1, 4] | EC50 ([2]; hCoV-229E live virus)
1 | COc1cccc2[nH]c(C(=O)N[C@@H](COC(C)(C)C)C(=O)N3C[C@]4(C[C@H]3C#N)C(=O)Nc3ccccc34)cc12 [Example 124] | < 100 nM | < 100 nM | – | –
2 | CC(C)(C)OC[C@H](NC(=O)c1cc2c(F)cc(F)cc2[nH]1)C(=O)N1C[C@]2(C[C@H]1C#N)C(=O)Nc1ccccc12 [Example 125] | < 100 nM | 100 to 1000 nM | – | –
3 | CC(C)(C)CC(NC(=O)c1cnn(-c2ccc(F)cc2)c1)C(=O)N1CC2(CC1C#N)C(=O)Nc1ccccc12 (centres unmarked) [Example 146] | < 100 nM | < 100 nM | – | –
4 | CC(C)C[C@H](NC(=O)c1cc2c(F)cc(F)c(F)c2[nH]1)C(=O)N1C[C@]2(C[C@H]1C#N)C(=O)Nc1ccccc12 [Example 152] | – | – | < 100 nM | –
5 | CC(C)C[C@@H](C(=O)N1C[C@]2(C[C@H]1C(=O)C(=O)NC1CCCCC1)C(=O)Nc1ccccc12)N(C)C(=O)c1cc2c(F)cc(F)c(F)c2[nH]1 [Example 156] | > 1000 nM | > 1000 nM | – | –
6 | CC(C)C[C@@H](C(=O)N1C[C@]2(C[C@H]1C#N)C(=O)Nc1ccccc12)N(C)C(=O)c1ccccc1OC(F)F [Example 176] | < 100 nM | < 100 nM | – | –
7 | CC(C)C[C@@H](C(=O)N1C[C@]2(C[C@H]1C#N)C(=O)Nc1ccccc12)N(C)C(=O)c1cc2cc(Br)ccc2cn1 [Example 230] | 100 to 1000 nM | < 100 nM | – | –
8 | COc1cc(C(=O)N(C)[C@@H](CC(C)C)C(=O)N2C[C@]3(C[C@H]2C#N)C(=O)Nc2ccccc23)cn2cc(C(F)F)nc12 [Example 255] | < 100 nM | < 100 nM | – | –
9 | CC(C)C[C@@H](C(=O)N1C[C@]2(C[C@H]1C#N)C(=O)Nc1ccccc12)N(C)C(=O)[C@@H]1C[C@H]1c1ccccc1 [Example 280] | < 100 nM | < 100 nM | – | –
10 | CC(C)CC(C(=O)N1CC2(CC1C#N)C(=O)Nc1ccccc12)N(C)C(=O)C1CC1c1ccccc1 (centres unmarked) [Example 281] | < 100 nM | – | – | < 100 nM
11 | CC(C)CC(C(=O)N1CC2(CC1C#N)C(=O)Nc1ccccc12)N(C)C(=O)c1nnn(-c2ccccc2)n1 (centres unmarked) [Example 287] | < 100 nM | < 100 nM | – | –
12 | CC(C)CC(C(=O)N1CC2(CC1C#N)C(=O)Nc1ccccc12)N(C)C(=O)c1nccc2ccccc12 (centres unmarked) [Example 300] | – | – | 100 to 1000 nM | –
13 | CC(C)CC(C(=O)N1CC2(CC1C#N)C(=O)Nc1ccccc12)N(C)C(=O)c1cc(OC2CC2)c2nn(C3CC3)cc2c1 (centres unmarked) [Example 307] | 100 to 1000 nM | 100 to 1000 nM | – | –
14 | COc1cc(C(=O)N(C)C(CC(C)C)C(=O)N2CC3(CC2C#N)C(=O)Nc2ccccc23)cc2cn(C3CC3)nc12 (centres unmarked) [Example 308] | < 100 nM | 100 to 1000 nM | – | –
15 | CC(C)CC(C(=O)N1CC2(CC1C#N)C(=O)Nc1ccccc12)N(C)C(=O)c1cnc2ccc(F)cc2c1 (centres unmarked) [Example 337] | – | – | < 100 nM | –
16 | CC(C)C[C@@H](C(=O)N1C[C@]2(C[C@H]1C#N)C(=O)Nc1ccccc12)N(C)C(=O)[C@H]1CCN(C(=O)C(F)(F)F)C1 [Example 346] | < 100 nM | < 100 nM | – | –

Row | Structure (SMILES) | IC50 [1] | EC50 [2, 3] | IC50 [1, 4] | EC50 ([2]; hCoV-229E live virus)
17 | CC(C)CC(C(=O)N1CC2(CC1C#N)C(=O)Nc1ccccc12)N(C)C(=O)C1CCN(C(=O)C(F)(F)F)C1 (centres unmarked) [Example 347] | < 100 nM | – | – | < 100 nM
18 | COC[C@@H](C(=O)N1C[C@]2(C[C@H]1C#N)C(=O)Nc1ccccc12)N(C)C(=O)c1cc2c(F)cc(F)cc2[nH]1 [Example 369] | – | – | < 100 nM | –
19 | CN(C(=O)c1cc2c(F)cc(F)cc2[nH]1)[C@@H](Cc1ccc(O)cc1)C(=O)N1C[C@]2(C[C@H]1C#N)C(=O)Nc1ccccc12 [Example 388] | – | – | < 100 nM | –
20 | [2H]C([2H])([2H])N(C(=O)c1cnn(CC(F)(F)F)c1)[C@@H](CCCC)C(=O)N1C[C@]2(C[C@H]1C#N)C(=O)Nc1ccccc12 [Example 394] | – | – | < 100 nM | –
21 | CN(C(=O)c1cnn(C(C)(C)C)c1)[C@@H](CC1CC1)C(=O)N1C[C@]2(C[C@H]1C#N)C(=O)Nc1ccccc12 [Example 404] | – | – | < 100 nM | –
22 | CN(C(=O)[C@@H](O)C(C)(C)C)[C@@H](CC1CC1)C(=O)N1C[C@]2(C[C@H]1C#N)C(=O)Nc1ccccc12 [Example 416] | < 100 nM | < 100 nM | – | –
23 | [2H]C([2H])([2H])N(C(=O)C(O)c1ccc(F)cc1)C(CCCC)C(=O)N1CC2(CC1C#N)C(=O)Nc1ccccc12 (centres unmarked) [Example 420] | – | – | < 100 nM | –
24 | [2H]C([2H])([2H])N(C(=O)C(O)c1ccc(F)cc1)C(CCCC)C(=O)N1CC2(CC1C#N)C(=O)Nc1ccccc12 (centres unmarked) [Example 421] | – | – | < 100 nM | –
25 | C[C@H](OC(=O)N[C@@H](CC(C)(C)C)C(=O)N1C[C@]2(C[C@H]1C#N)C(=O)Nc1ccc(Cl)cc12)c1ccc(F)cc1 [Example 494] | < 100 nM | 100 to 1000 nM | – | –
26 | COC(=O)c1ccc2c(c1)[C@@]1(C[C@@H](C#N)N(C(=O)[C@H](CC(C)C)N(C)C(=O)c3cc4c(F)cc(F)cc4[nH]3)C1)C(=O)N2 [Example 501, methyl (3R,5'S)-5'-cyano-1'-(N-(4,6-difluoro-1H-indole-2-carbonyl)-N-methyl-L-leucyl)-2-oxospiro[indoline-3,3'-pyrrolidine]-5-carboxylate] | – | < 100 nM | – | –
27 | CC(C)C[C@@H](C(=O)N1C[C@]2(C[C@H]1C#N)C(=O)Nc1ccc(C(=O)N3CCOCC3)cc12)N(C)C(=O)c1cc2c(F)cc(F)cc2[nH]1 [Example 502, N-((S)-1-((3R,5'S)-5'-cyano-5-(morpholine-4-carbonyl)-2-oxospiro[indoline-3,3'-pyrrolidin]-1'-yl)-4-methyl-1-oxopentan-2-yl)-4,6-difluoro-N-methyl-1H-indole-2-carboxamide] | – | < 100 nM | – | –
28 | CC(C)C[C@@H](C(=O)N1C[C@]2(C[C@H]1C#N)C(=O)Nc1ccc(N=[N+]=[N-])cc12)N(C)C(=O)c1cc2c(F)cc(F)cc2[nH]1 [Example 503, N-((S)-1-((3R,5'S)-5-azido-5'-cyano-2-oxospiro[indoline-3,3'-pyrrolidin]-1'-yl)-4-methyl-1-oxopentan-2-yl)-4,6-difluoro-N-methyl-1H-indole-2-carboxamide] | – | < 100 nM | – | –
29 | CC(C)C[C@@H](C(=O)N1C[C@]2(C[C@H]1C#N)C(=O)Nc1ccc(NC(=O)C3(F)CC3)cc12)N(C)C(=O)c1cc2c(F)cc(F)cc2[nH]1 [Example 504, N-((S)-1-((3R,5'S)-5'-cyano-5-(1-fluorocyclopropane-1-carboxamido)-2-oxospiro[indoline-3,3'-pyrrolidin]-1'-yl)-4-methyl-1-oxopentan-2-yl)-4,6-difluoro-N-methyl-1H-indole-2-carboxamide] | – | < 100 nM | – | –
30 | CC(C)C[C@@H](C(=O)N1C[C@]2(C[C@H]1C#N)C(=O)Nc1ccc(-n3cc(C4CC4)nn3)cc12)N(C)C(=O)c1cc2c(F)cc(F)cc2[nH]1 [Example 505, N-((S)-1-((3R,5'S)-5'-cyano-5-(4-cyclopropyl-1H-1,2,3-triazol-1-yl)-2-oxospiro[indoline-3,3'-pyrrolidin]-1'-yl)-4-methyl-1-oxopentan-2-yl)-4,6-difluoro-N-methyl-1H-indole-2-carboxamide] | – | < 100 nM | – | –
31 | C[C@@H](OC(=O)N[C@@H](CC(C)(C)C)C(=O)N1C[C@]2(C[C@H]1C#N)C(=O)Nc1ccc(F)cc12)c1ccc(F)cc1 [Example 523] | – | – | < 100 nM | –
